By Cmax is commonly meant the maximum level reached in the sampled fluid or tissue. One may read the Tmax as the time from dosing to the highest level. A word on the half-life: it is the time in which the quantity being followed falls by half. Broadly, the AUC(0-t) is exposure summed from dosing to a finite time, without extrapolation to infinity. A higher AUC(0-t) goes with more exposure. What is called AUC(0-inf) is the area under the concentration-time curve extrapolated to infinity. A word on the inhibition in vivo: it is how much of the control response was suppressed. For orientation: IC50 means the midpoint of a concentration-inhibition curve.

The values below come from ChEMBL document CHEMBL5126603, “Discovery of Clinical Candidate CHF-6366: A Novel Super-soft Dual Pharmacology Muscarinic Antagonist and β2 Agonist (MABA) for the Inhaled Treatment of Respiratory Diseases” (J Med Chem, 2022).

Structures are written as SMILES.

A short description of series [1]: Cmax in Dunkin-Hartley guinea pig lung at 500 nmol/Kg, IT(Intratracheal) measured after 72 hrs by LC/MS-MS analysis. The series is classed as ADME, tissue-based, Cavia porcellus. On the set-up: time 72 hrs, dose 500 nmol/kg, route it(Intratracheal). The conditions noted are these: inhaled or intranasal.
Series [2] is described as follows: Tmax in Dunkin-Hartley guinea pig lung at 500 nmol/Kg, IT(Intratracheal) measured after 72 hrs by LC/MS-MS analysis. Format: ADME, tissue-based, Cavia porcellus. Particulars: inhaled or intranasal.
Series [3] is described as follows: AUClast in Dunkin-Hartley guinea pig lung at 500 nmol/Kg, IT(Intratracheal) measured after 72 hrs by LC/MS-MS analysis. Format: ADME, tissue-based, Cavia porcellus. The conditions noted are these: in vivo, inhaled_or_intranasal.
A short description of series [4]: AUCinfinity in Dunkin-Hartley guinea pig lung at 500 nmol/Kg, IT(Intratracheal) measured after 72 hrs by LC/MS-MS analysis. Format: ADME, tissue-based, Cavia porcellus. On the set-up: dose 500 nmol/kg, time 72 hrs, route it(Intratracheal). Particulars: in vivo, inhaled_or_intranasal.
The nature of series [5]: Half life in Dunkin-Hartley guinea pig lung at 500 nmol/Kg, IT(Intratracheal) measured after 72 hrs by LC/MS-MS analysis. The series is classed as ADME, tissue-based, Cavia porcellus. The conditions noted are these: inhaled or intranasal.
The nature of series [6]: Cmax in Dunkin-Hartley guinea pig plasma at 500 nmol/Kg, IT(Intratracheal) measured after 72 hrs by LC/MS-MS analysis. Format: ADME, cell-free, Cavia porcellus. Particulars: inhaled or intranasal. On the set-up: dose 500 nmol/kg, time 72 hrs, route it(Intratracheal).
Series [7] is described as follows: Tmax in Dunkin-Hartley guinea pig plasma at 500 nmol/Kg, IT(Intratracheal) measured after 72 hrs by LC/MS-MS analysis. Format: ADME, cell-free, Cavia porcellus. Particulars: inhaled or intranasal.
A short description of series [8]: AUClast in Dunkin-Hartley guinea pig plasma at 500 nmol/Kg, IT(Intratracheal) measured after 72 hrs by LC/MS-MS analysis. The conditions noted are these: inhaled or intranasal. On the set-up: time 72 hrs, dose 500 nmol/kg, route it(Intratracheal). The series is classed as ADME, cell-free, Cavia porcellus.
Series [9] can be described thus: AUCinfinity in Dunkin-Hartley guinea pig plasma at 500 nmol/Kg, IT(Intratracheal) measured after 72 hrs by LC/MS-MS analysis. Format: ADME, cell-free, Cavia porcellus. The arrangement: dose 500 nmol/kg, time 72 hrs, route it(Intratracheal). Particulars: inhaled or intranasal.
Series [10] in a line: Half life in Dunkin-Hartley guinea pig plasma at 500 nmol/Kg, IT(Intratracheal) measured after 72 hrs by LC/MS-MS analysis. Format: ADME, cell-free, Cavia porcellus. Particulars: inhaled or intranasal.
Series [11] can be described thus: Mutagenicity in Salmonella typhimurium assessed as induction of reverse mutation by Ames test. The series is classed as toxicity. Particulars: salmonella enterica subsp. enterica serovar typhimurium.
Series [12] can be described thus: Mutagenicity in Escherichia coli assessed as induction of reverse mutation by Ames test. The series is classed as toxicity. A general note: In the Ames test, an excess of revertant colonies over the control signals mutagenicity.
Series [13] has as its system Trachea. As to the kind of experiment: Bifunctional antagonist activity at muscarinic M3 receptor /agonist activity at beta-2 adrenoceptor in Dunkin-Hartley guinea pig trachea assessed as inhibition of acetylcholine-induced bronchoconstriction at 1 nmol/Kg, IT(Intratracheal) measured after 5 mins by Konzett-Roessler methodology relative to control. The conditions noted are these: Cavia porcellus. Format: functional.

For series [14], the system named is Trachea. As to the kind of experiment: Bifunctional antagonist activity at muscarinic M3 receptor /agonist activity at beta-2 adrenoceptor in Dunkin-Hartley guinea pig trachea assessed as inhibition of acetylcholine-induced bronchoconstriction at 1 nmol/Kg, IT(Intratracheal) measured after 15 mins by Konzett-Roessler methodology relative to control. The series is classed as functional. The conditions noted are these: Cavia porcellus, 0.25 h.

Series [15] deals with Trachea. The experiment in a line: Bifunctional antagonist activity at muscarinic M3 receptor /agonist activity at beta-2 adrenoceptor in Dunkin-Hartley guinea pig trachea assessed as inhibition of acetylcholine-induced bronchoconstriction at 1 nmol/Kg, IT(Intratracheal) measured after 30 mins by Konzett-Roessler methodology relative to control. Particulars: Cavia porcellus, 0.5 h. Format: functional.

Series [16] is described as follows: Metabolic stability in human plasma assessed as half life at 5 uM measured upto 120 mins by LC-MS/MS analysis. Format: ADME, cell-free.
Series [17] is described as follows: Metabolic stability in rat plasma assessed as half life at 5 uM measured upto 120 mins by LC-MS/MS analysis. The series is classed as ADME, cell-free.
Series [18] concerns Trachea. As to the kind of experiment: In vivo bifunctional antagonist activity at muscarinic M3 receptor /agonist activity at beta-2 adrenoceptor in Dunkin-Hartley guinea pig trachea assessed as time duration for inhibition of carbachol induced contraction measured […]. Format: functional, Cavia porcellus.
The test system of series [19] is Trachea. The experiment in a line: In vivo bifunctional antagonist activity at muscarinic M3 receptor /agonist activity at beta-2 adrenoceptor in Dunkin-Hartley guinea pig trachea assessed as inhibition of carbachol induced contraction. The series is classed as functional, tissue-based. Particulars: Cavia porcellus.
Series [20] in a line: Metabolic stability in human lung S9 fraction assessed as half life at 1 uM measured after 0 to 60 mins in presence of NADPH by LC-MS/MS analysis. Format: ADME, subcellular. Particulars: time 0-60 min.
A short description of series [21]: Metabolic stability in Dunkin-Hartley guinea pig plasma assessed as half life at 5 uM measured upto 120 mins by LC-MS/MS analysis. Format: ADME, cell-free, Cavia porcellus.

On to `Cn1nc(C(=O)O)cc1COc1cccc([C@@H](NC(=O)O[C@H]2CN3CCC2CC3)c2ccccc2)c1`, for which the results for the Cmax in [1] and in series [6] were 1450 ng/g and 41.7 ng/g, respectively. The Tmax in [2] and in [7] was 4.98 min throughout. For the same molecule, the AUClast in series [3] amounted to 6226 ng·h/g. The AUC in series [4] amounted to 6465 ng·h/g. Further, the half-life was 316 min in series [5] and 1240 min in series [10]. For the same molecule, in series [8], the AUC(0-t) at 72 h was determined as 179 ng·h/mL. For the same molecule, the AUC(0-inf) in [9] was found to be 296 ng·h/mL. In addition, the Activity result in series [11] and in series [12] was “Non-Toxic” in each case. Also, the inhibition in vivo at 0.001 µmol/kg was 0.84% in the series on Trachea [13], 1.92% with Trachea [14] and 3.36% in the series with Trachea [15].

For `O=C(NC(c1ccccc1)c1cccc(OCc2ccc(C(=O)OCCCCNC[C@H](O)c3ccc(O)c4[nH]c(=O)ccc34)cc2)c1)O[C@H]1CN2CCC1CC2` (mixture of isomers), the half-life at 5 µM in series [16] and in series [17] was less than 5 min throughout. For the same molecule, in the series with Trachea [18], the Time is reported as more than 270 min. Further, the IC50 in the series with Trachea [19] is 0.0794 nM.

As to `O=C(N[C@H](c1ccccc1)c1cccc(OCc2ccc(C(=O)OCCCCNC[C@H](O)c3ccc(O)c4[nH]c(=O)ccc34)cc2)c1)O[C@H]1CN2CCC1CC2`, the half-life at 1 µM in [20] came out at 16.8 min. For the same molecule, the half-life at 5 µM in [16] was less than 5 min; in series [17] it was less than 5 min; in series [21] it was 46.7 min. Moreover, the Time in the series on Trachea [18] amounted to 180 min. Besides, the IC50 with Trachea [19] is 1.26 nM.

For the molecule `COc1cc(C(=O)OCCCCNC[C@H](O)c2ccc(O)c3[nH]c(=O)ccc23)ccc1COc1cccc([C@@H](NC(=O)O[C@H]2CN3CCC2CC3)c2ccccc2)c1`, in series [20], the half-life at 1 µM turned out to be 89.3 min. Further, the values for the half-life at 5 µM in series [16], in series [17] and in series [21] were 21 min, 12 min and 83.5 min, respectively. For the same molecule, in the series on Trachea [18], the Time is given as less than 135 min. In the series with Trachea [19], the IC50 is 1.26 nM.
